Measurements from ChEMBL document CHEMBL4043139, “Fluoro and pentafluorothio analogs of the antitumoral curcuminoid EF24 with superior antiangiogenic and vascular-disruptive effects” (Bioorg Med Chem, 2017).
Activity calls are given as the source filed them. No cut-off for these calls is given here.

Experiments:
[1] = system: Gallus gallus; assay: Vascular disruptive activity in 6 days post fertilized chicken egg chorioallantoic/vitelline membrane assessed as disruption of capillary reticulation at 10 nmol administered topically measured after 6 hrs by stereo-microscopic analysis; format: functional
[2] = system: Gallus gallus; assay: Vascular disruptive activity in 6 days post fertilized chicken egg chorioallantoic/vitelline membrane assessed as degradation of blood vessels at 10 nmol administered topically measured after 6 hrs by stereo-microscopic analysis; format: functional
[3] = system: 518A2; assay: Cytotoxicity against human 518A2 cells after 72 hrs by MTT assay; format: functional, cell-based; details: for IC50: 518A2, 72 h
[4] = system: HT-29; assay: Cytotoxicity against human HT-29 cells after 72 hrs by MTT assay; format: functional, cell-based; details: for IC50: HT-29, 72 h
[5] = system: HCT-116; assay: Cytotoxicity against human HCT116 cells after 72 hrs by MTT assay; format: functional, cell-based; details: for IC50: HCT-116, 72 h
[6] = system: DLD-1; assay: Cytotoxicity against human DLD1 cells after 72 hrs by MTT assay; format: functional, cell-based; details: for IC50: DLD-1, 72 h
[7] = system: PANC-1; assay: Cytotoxicity against human PANC1 cells after 72 hrs by MTT assay; format: functional, cell-based; details: for IC50: PANC-1, 72 h
[8] = (§1) Cytotoxicity against human KB-V1/Vbl cells after 72 hrs by MTT assay; format: functional, cell-based
[9] = system: KB-V1/Vbl; assay: as §1; format: functional, cell-based
[10] = (§2) Cytotoxicity against human MCF7/Topo cells after 72 hrs by MTT assay; format: functional, cell-based
[11] = system: MCF7/Topo; assay: as §2; format: functional, cell-based
[12] = (§3) Cytotoxicity against human U87 cells after 72 hrs by MTT assay; format: functional, cell-based, U-87MG ATCC; details: U-87 MG
[13] = system: U-87MG ATCC; assay: as §3; format: functional, cell-based
[14] = Cytotoxicity against HDFa after 72 hrs by MTT assay; format: cell-based; details: Homo sapiens
[15] = system: HT-29; assay: Cell cycle arrest in human HT-29 cells assessed as accumulation at sub-G1 phase at 1 uM after 24 hrs by propidium iodide staining based flow cytometric analysis (reference value: 0.9 +/- 0.1%); format: functional
[16] = system: HT-29; assay: Cell cycle arrest in human HT-29 cells assessed as accumulation at sub-G1 phase at 2.5 uM after 24 hrs by propidium iodide staining based flow cytometric analysis (reference value: 0.9 +/- 0.1%); format: functional
[17] = system: HT-29; assay: Cell cycle arrest in human HT-29 cells assessed as accumulation at sub-G1 phase at 5 uM after 24 hrs by propidium iodide staining based flow cytometric analysis (reference value: 0.9 +/- 0.1%); format: functional
[18] = system: HT-29; assay: Cell cycle arrest in human HT-29 cells assessed as accumulation at G1 phase at 1 uM after 24 hrs by propidium iodide staining based flow cytometric analysis (reference value: 68 +/- 0.9%); format: functional
[19] = system: HT-29; assay: Cell cycle arrest in human HT-29 cells assessed as accumulation at G1 phase at 2.5 uM after 24 hrs by propidium iodide staining based flow cytometric analysis (reference value: 68 +/- 0.9%); format: functional
[20] = system: HT-29; assay: Cell cycle arrest in human HT-29 cells assessed as accumulation at G1 phase at 5 uM after 24 hrs by propidium iodide staining based flow cytometric analysis (reference value: 68 +/- 0.9%); format: functional
[21] = system: HT-29; assay: Cell cycle arrest in human HT-29 cells assessed as accumulation at S phase at 1 uM after 24 hrs by propidium iodide staining based flow cytometric analysis (reference value: 15.6 +/- 0.3%); format: functional
[22] = system: HT-29; assay: Cell cycle arrest in human HT-29 cells assessed as accumulation at S phase at 2.5 uM after 24 hrs by propidium iodide staining based flow cytometric analysis (reference value: 15.6 +/- 0.3%); format: functional
[23] = system: HT-29; assay: Cell cycle arrest in human HT-29 cells assessed as accumulation at S phase at 5 uM after 24 hrs by propidium iodide staining based flow cytometric analysis (reference value: 15.6 +/- 0.3%); format: functional
[24] = system: HT-29; assay: Cell cycle arrest in human HT-29 cells assessed as accumulation at G2/M phase at 1 uM after 24 hrs by propidium iodide staining based flow cytometric analysis (reference value: 15.5 +/- 0.5%); format: functional
[25] = system: HT-29; assay: Cell cycle arrest in human HT-29 cells assessed as accumulation at G2/M phase at 2.5 uM after 24 hrs by propidium iodide staining based flow cytometric analysis (reference value: 15.5 +/- 0.5%); format: functional
[26] = system: HT-29; assay: Cell cycle arrest in human HT-29 cells assessed as accumulation at G2/M phase at 5 uM after 24 hrs by propidium iodide staining based flow cytometric analysis (reference value: 15.5 +/- 0.5%); format: functional
[27] = system: HT-29; assay: Upregulation of cyclin B1 expression in human HT-29 cells at 1 to 2.5 uM after 24 hrs by Western blot analysis; format: functional, cell-based
[28] = organism: Homo sapiens; assay: Inhibition of NF-kappaB in human 518A2 cells assessed as reduction in p65 subunit expression at 0.5 to 1 uM after 24 hrs by Western blot analysis; format: cell-based
[29] = system: 518A2; assay: Anti-migratory activity in human 518A2 cells assessed as wound closure at 250 nM after 24 hrs by light microscopic analysis; format: functional, cell-based
[30] = system: 518A2; assay: Anti-migratory activity in human 518A2 cells assessed as wound closure at 250 nM after 48 hrs by light microscopic analysis (reference value: 100%); format: functional
[31] = organism: Danio rerio; assay: Antiangiogenic activity in 72 hrs post fertilized zebra fish embryo harboring fli1a:EGFP assessed as area of subintestinal veins at 5 uM after 48 hrs by fluorescence microscopic analysis (reference value: 100%); format: functional
[32] = system: Gallus gallus; assay: Toxicity in 6 days post fertilized chicken egg at 10 nmol administered topically; details: in vivo, topical_or_ocular, 144 h
[33] = system: Gallus gallus; assay: Vascular disruptive activity in 6 days post fertilized chicken egg chorioallantoic/vitelline membrane at 10 nmol administered topically measured after 24 hrs by stereo-microscopic analysis; format: functional
[34] = system: Gallus gallus; assay: Vascular disruptive activity in 6 days post fertilized chicken egg assessed as area covered by blood vessels at 10 nmol administered topically measured after 6 hrs by light microscopic analysis relative to control; format: functional
[35] = system: U-87MG ATCC; assay: Anti-vasculogenic activity in human U87 cells assessed as reduction in formation of cord-like structures at 2.5 uM after 24 hrs by matrigel based light microscopic analysis; format: functional, cell-based
[36] = system: U-87MG ATCC; assay: Anti-vasculogenic activity in human U87 cells assessed as reduction in formation of blood-vessel like tubular structures at 2.5 uM after 24 hrs by matrigel based light microscopic analysis; format: functional, cell-based
[37] = system: U-87MG ATCC; assay: Anti-vasculogenic activity in human U87 cells assessed as reduction in formation of small stray colonies at 2.5 uM after 24 hrs by matrigel based light microscopic analysis; format: functional, cell-based
[38] = Cytotoxicity against human U87 cells assessed as cell viability at 10 nmol after 24 hrs by MTT assay relative to control; format: cell-based, U-87MG ATCC; details: read-out: Activity
[39] = system: U-87MG ATCC; assay: Vascular disruptive activity in human U87 cells assessed as disruption of preformed tubular networks at 1 uM after 24 hrs by matrigel based light microscopic analysis; format: functional, cell-based
[40] = Cytotoxicity against human U87 cells assessed as effect on cell viability at 1 uM after 24 hrs by MTT assay; format: cell-based; details: u-87mg atcc
[41] = system: HT-29; assay: Upregulation of cyclin B1 expression in human HT-29 cells at 0.5 to 0.75 uM after 24 hrs by Western blot analysis; format: functional, cell-based
[42] = organism: Danio rerio; assay: Antiangiogenic activity in 72 hrs post fertilized zebra fish embryo harboring fli1a:EGFP assessed as area of subintestinal veins at 10 uM after 48 hrs by fluorescence microscopic analysis (reference value: 100%); format: functional
[43] = Toxicity in 6 days post fertilized chicken egg chorioallantoic/vitelline membrane assessed as irritation of chorioallantoic/vitelline membrane at 10 nmol administered topically measured after 24 hrs; set-up: species or system Gallus gallus; details: in vivo, topical_or_ocular
[44] = system: U-87MG ATCC; assay: Anti-vasculogenic activity in human U87 cells assessed as reduction in formation of cord-like structures at 1 uM after 24 hrs by matrigel based light microscopic analysis; format: functional, cell-based
[45] = system: U-87MG ATCC; assay: Anti-vasculogenic activity in human U87 cells assessed as reduction in formation of blood-vessel like tubular structures at 1 uM after 24 hrs by matrigel based light microscopic analysis; format: functional, cell-based
[46] = system: U-87MG ATCC; assay: Anti-vasculogenic activity in human U87 cells assessed as reduction in formation of small stray colonies at 1 uM after 24 hrs by matrigel based light microscopic analysis; format: functional, cell-based

For `CN1C/C(=C\c2cc(F)c(F)cc2F)C(=O)/C(=C/c2cc(F)c(F)cc2F)C1`, the Activity [1] was “Active”, the Activity [2] was “Active” and the Activity [3] was “Dose-dependent effect”. For the same molecule, the IC50 [3] was 1600 nM, the Activity [4] was “Dose-dependent effect” and the IC50 [4] was 840 nM. The Activity [5] was “Dose-dependent effect”, the IC50 [5] was 1500 nM and the Activity [6] was “Dose-dependent effect”. For the same molecule, the IC50 [6] was 1800 nM, the Activity [7] was “Dose-dependent effect” and the IC50 [7] was 1600 nM. The IC50 [8] was 720 nM, the Activity [9] was “Dose-dependent effect” and the IC50 [10] was 1600 nM. The Activity [11] was “Dose-dependent effect”, the IC50 [12] was 3100 nM and the Activity [13] was “Dose-dependent effect”. The IC50 [14] was > 10000 nM, the Activity [15] was 2.3% and the Activity [16] was 17%. The Activity [17] was 19.7%, the Activity [18] was 61.3% and the Activity [19] was 46.8%. For the same molecule, the Activity [20] was 28.2%, the Activity [21] was 18.7% and the Activity [22] was 13%. The Activity [23] was 28.3%, the Activity [24] was 17.7% and the Activity [25] was 23.2%. The Activity [26] was 23.7%, the Activity [27] was “Active” and the inhibition [28] was “Active”. For the same molecule, the Activity [29] was “Active”, the Activity [30] was “Active” and the Activity [31] was 39%. For the same molecule, the Activity [32] was “Non-Toxic”, the Activity [33] was “inactive” and the Activity [34] was 44%. The Activity [35] was “inactive”, the Activity [36] was “inactive” and the Activity [37] was “inactive”. For the same molecule, the viability at 24 h, 10 nmol [38] was > 85%, the Activity [39] was “Active” and the Activity [40] was “Non-Toxic”.
For `CCN1C/C(=C\c2ccc(S(F)(F)(F)(F)F)cc2)C(=O)/C(=C/c2ccc(S(F)(F)(F)(F)F)cc2)C1`, the Activity [2] was “Active”, the Activity [3] was “Dose-dependent effect” and the IC50 [3] was 990 nM. The Activity [4] was “Dose-dependent effect”, the IC50 [4] was 290 nM and the Activity [5] was “Dose-dependent effect”. For the same molecule, the IC50 [5] was 240 nM, the Activity [6] was “Dose-dependent effect” and the IC50 [6] was 330 nM. For the same molecule, the Activity [7] was “Dose-dependent effect”, the IC50 [7] was 1100 nM and the IC50 [8] was 640 nM. The Activity [9] was “Dose-dependent effect”, the IC50 [10] was 400 nM and the Activity [11] was “Dose-dependent effect”. For the same molecule, the IC50 [12] was 930 nM, the Activity [13] was “Dose-dependent effect” and the IC50 [14] was 3200 nM. The Activity [15] was 13.2%, the Activity [16] was 12.8% and the Activity [17] was 16.6%. For the same molecule, the Activity [18] was 46.7%, the Activity [19] was 43.1% and the Activity [20] was 35.9%. For the same molecule, the Activity [21] was 8.1%, the Activity [22] was 12% and the Activity [23] was 16.5%. It also gave an Activity [24] of 32.1%, an Activity [25] of 32.1% and an Activity [26] of 31%. For the same molecule, the Activity [41] was “Active”, the inhibition [28] was “Active” and the Activity [29] was “Active”. For the same molecule, the Activity [30] was 77%, the Activity [42] was 51% and the Activity [43] was “Toxic”. The Activity [34] was 67%, the Activity [44] was “inactive” and the Activity [45] was “inactive”. The Activity [46] was “inactive” and the viability at 24 h, 10 nmol [38] was > 85%.
